Experimental data from patent US20230118152A1, “FORMS OF 5-({[2-AMINO-3-(4-CARBAMOYL-2,6-DIMETHYL-PHENYL)-PROPIONYL]-[1-(4-PHENYL-1H-IMIDAZOL-2-YL)-ETHYL]-AMINO}-METHYL)-2-METHOXY-BENZOIC ACID” (Allergan Holdings Unlimited Company, priority 2020, published 2023).

Assay: Slurry experiments in water (physical form stability)
Type: physicochemical
Protocol: Form H3 may be formed by slurrying Form A in water. Form H3 may convert back to Form A with some minor amorphous contents within some time, and completely convert to amorphous phase upon further slurrying within further time.
Form H3 was prepared by slurry of Form A in water upon stirring. Form H3 converted back to Form A with some minor amorphous content within 2 days, and completely converted to amorphous phase upon slurry within 8 days. After additional 7 days (i.e. day 15 of slurry experiments), the amorphous phase converted further to Form D (tetrahydrate) with high crystallinity.

| SMILES | solid form conversion when suspended in water (suspended in water, trihydrate form (H3) and tetrahydrate (Form D)) | time for complete conversion to amorphous phase (slurry in water upon stirring) [days] | time for conversion back to Form A with some minor amorphous content (slurry in water upon stirring) [days] |
| --- | --- | --- | --- |
| COc1ccc(CN(C(=O)C(N)Cc2c(C)cc(C(N)=O)cc2C)C(C)c2nc(-c3ccccc3)c[nH]2)cc1C(=O)O (stereo not drawn) [Form A, 5-({[2-Amino-3-(4-carbamoyl-2,6-dimethyl-phenyl)-propionyl]-[1-(4-phenyl-1H-imidazol-2-yl)-ethyl]-amino}-methyl)-2-methoxy-benzoic acid] | converts to hydrated crystalline forms | – | – |
| COc1ccc(CN(C(=O)C(N)Cc2c(C)cc(C(N)=O)cc2C)C(C)c2nc(-c3ccccc3)c[nH]2)cc1C(=O)O (stereo not drawn) [Form H3, 5-({[2-amino-3-(4-carbamoyl-2,6-dimethyl-phenyl)-propionyl]-[1-(4-phenyl-1H-imidazol-2-yl)-ethyl]-amino}-methyl)-2-methoxy-benzoic acid] | – | ≤ 8 | ≤ 2 |
